Laboratory results reported in patent US10894817B2, “Fatty acid modified urocortin-2 analogs for the treatment of diabetes and chronic kidney disease” (priority 2016, dated 2021).
Starred links: 1 amine or outer side, 2 acyl side, 3 side chain; linkers in the order of their positions; H or OH if unused. Non-standard residues stand in square brackets, D forms with d. Residues, ends and D or L forms follow the SMILES beside them. Groups on a side chain read outwards from the residue. *: point of attachment. C20 diacid = O=C(O)CCCCCCCCCCCCCCCCCCC(=O)*; γGlu = O=C(O)[C@H](CCC(=O)[*:2])N[*:1]; NMeI = CC[C@H](C)[C@H](NC)C(=O)O; AEEA = NCCOCCOCC(=O)O

Target: T1, human CRHR2b (Homo sapiens, UniProt Q13324)
T1 construct: expressed in transfected cells; host or cells: Chinese Hamster Ovary (CHO) cells, transient transfection
T1 sequence (Q13324 1-438 isoform Q13324-2): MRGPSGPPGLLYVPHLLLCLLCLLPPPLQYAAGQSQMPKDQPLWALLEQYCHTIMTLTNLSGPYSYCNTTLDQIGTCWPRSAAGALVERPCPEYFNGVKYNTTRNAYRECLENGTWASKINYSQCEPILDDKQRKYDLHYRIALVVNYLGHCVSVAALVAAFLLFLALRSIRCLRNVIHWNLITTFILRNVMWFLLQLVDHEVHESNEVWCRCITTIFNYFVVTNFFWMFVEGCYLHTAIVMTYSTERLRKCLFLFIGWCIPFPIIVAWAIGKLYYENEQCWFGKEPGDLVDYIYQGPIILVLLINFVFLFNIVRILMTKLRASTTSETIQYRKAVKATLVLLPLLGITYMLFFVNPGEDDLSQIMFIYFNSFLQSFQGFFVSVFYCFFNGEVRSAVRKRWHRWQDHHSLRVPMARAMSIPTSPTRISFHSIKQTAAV
Experiment: human CRHR2b cell-based cAMP assay
Details: cAMP assay, CHO cells transfected with human CRHR2b; mean ± SEM of runs; read-out: hCRHR2b Average EC50
Summary of the method: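 ED50 values are means ± SEM over several runs, curve-fitted from cAMP in pmol, calibrated against unlabeled-cAMP standards. Detection was HTRF competition, ratio 665/620 nm, after 30 min agonist exposure at 37 °C.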

CC[C@H](C)[C@H](NC)C(=O)N[C@H](C(=O)N[C@H](C(=O)N[C@@H](CO)C(=O)N[C@@H](CC(C)C)C(=O)N[C@@H](CC(=O)O)C(=O)N[C@H](C(=O)N1CCC[C@H]1C(=O)N[C@H](C(=O)NCC(=O)N[C@@H](CC(C)C)C(=O)N[C@@H](CC(C)C)C(=O)N[C@@H](CCC(N)=O)C(=O)N[C@H](C(=O)N[C@@H](CC(C)C)C(=O)N[C@H](C(=O)N[C@@H](CCC(=O)O)C(=O)N[C@@H](CCC(N)=O)C(=O)N[C@@H](CCC(=O)O)C(=O)N[C@@H](CCCCN)C(=O)N[C@@H](CCC(N)=O)C(=O)N[C@@H](CCC(=O)O)C(=O)N[C@@H](CCCCN)C(=O)N[C@@H](CCC(=O)O)C(=O)N[C@@H](CCCCN)C(=O)N[C@@H](CCC(N)=O)C(=O)N[C@@H](CCC(N)=O)C(=O)N[C@@H](C)C(=O)N[C@@H](CCCCNC(=O)COCCOCCNC(=O)COCCOCCNC(=O)CC[C@H](NC(=O)CC[C@H](NC(=O)CCCCCCCCCCCCCCCCCCC(=O)O)C(=O)O)C(=O)O)C(=O)N[C@H](C(=O)N[C@@H](CC(N)=O)C(=O)N[C@@H](C)C(=O)N[C@@H](CCC(=O)O)C(=O)N[C@H](C(=O)N[C@@H](CC(C)C)C(=O)N[C@@H](C)C(=O)N[C@@H](CCC(N)=O)C(=O)N[C@H](C(N)=O)C(C)C)[C@@H](C)CC)[C@@H](C)O)[C@@H](C)CC)[C@@H](C)CC)[C@@H](C)CC)C(C)C)[C@@H](C)O)C(C)C [Example 7] (H-[NMeI]VTSLDVPIGLLQILIEQEKQEKEKQQAK([AEEA-AEEA-γGlu-γGlu-C20 diacid])TNAEILAQV-NH2)
EC50: 0.94 ± 0.05 nM
